Results taken from PMC4567266 (PLoS ONE, 2015).

Key:
Assay type in all cases: cell-based
[1] = system: THP-1 (a human monocytic leukemia cell line); test: Cell proliferation assay (WST-8), THP-1; details: for IC50: DMSO less than 1%
Method: (§1) We used THP-1 (a human monocytic leukemia cell line), L929 (a mouse fibroblast cell line), RAW264.7 (a mouse macrophage cell line), and mouse bone marrow-derived macrophages cultured in a flask or plate at 37°C, under a humidified atmosphere of 5% CO2 in air. THP-1 and L929 were obtained from Japan Health Science Foundation. RAW264.7 was purchased from DS Pharma Biomedical Co., Ltd. These cells were cultured in RPMI1640 + 10% FCS consisting of RPMI1640 [+] L-glutamine (Gibco) supplemented with antibiotics (penicillin and streptomycin; Gibco) and 10% fetal calf serum (FCS; Biowest). In cell proliferation assays, they were cultured in flat-bottomed 96-well plates (Corning) in 100 μl/well at a concentration of 1 x 10^5/ml with or without test samples. In the case of mouse peritoneal cells, we employed 1 x 10^6/ml as a cell concentration. After finishing the culture, we added 10 μl of a coloring reagent, WST-8 (Kishida Chemical Co.), which converts to water-soluble colored formazan by the action of a mitochondrial enzyme. Cells were additionally incubated with WST-8 for 3 h and the coloring reaction was stopped by adding 10 μl of 0.1% sodium dodecyl sulfate (SDS) solution. The absorbance of each well was then measured at 450 nm with a Multiskan Ascent plate reader (Labsystems). In principle, we performed cell proliferation assays in duplicate. Half-maximal (50%) inhibitory concentration (IC50) of each test sample was calculated according to the reported formula [15].
(§2) We examined the inhibitory activities of food constituents in cell proliferation assays. Test compounds used in the assays were as follows: curcumin (Wako or Sigma-Aldrich), zerumbone (Wako), genistein (Sigma-Aldrich), chalcone (Wako), corosolic acid (Wako), carnosol (Wako), ursolic acid (Wako), epigallocatechin (Sigma-Aldrich), isoflavone (Wako), apigenin (Wako), chrysin (Wako), flavanone (Wako), resveratrol (Wako), flavone (Wako), quercetin (Wako), daidzein (Wako), and clodronate (Sigma-Aldrich). These compounds were firstly dissolved with dimethyl sulfoxide (DMSO; Wako) and then appropriately diluted with RPMI1640 + 10% FCS to apply the assays. The final concentration of DMSO was adjusted not to exceed 1% at most in cell cultures.

[2] = system: mouse bone marrow-derived macrophages; test: Cell proliferation assay (WST-8), mouse bone marrow-derived macrophages; details: for IC50: means ± range (n = 2) or standard deviation (n > 2), DMSO less than 1%
Method: as §1, §2

[3] = system: L929 (a mouse fibroblast cell line); test: Cell proliferation assay (WST-8), L929; details: for IC50: means ± range (n = 2) or standard deviation (n > 2), DMSO less than 1%
Method: as §1, §2

[4] = system: RAW264.7 (a mouse macrophage cell line); test: Cell proliferation assay (WST-8), RAW264.7; details: cultured for 3 days
Method: as §1, with “In the case of mouse peritoneal cells, we employed 1 x 10^6/ml as a cell concentration. After finishing the culture, we added 10 μl of a coloring reagent, WST-8 (Kishida Chemical Co.), which converts to water-soluble colored formazan by the action of a mitochondrial enzyme. Cells were additionally incubated with WST-8 for 3 h and the coloring reaction was stopped by adding 10 μl of 0.1% sodium dodecyl sulfate (SDS) solution.” left out, “In principle, we performed cell proliferation assays in duplicate.” left out
After culturing, they were incubated with WST-8 for 3 h to assess viable cells in the culture. Resultant coloring reaction by WST-8 was measured with a plate-reader at the absorbance of 450 nm. In the vertical axis, the absorbance of only the medium was defined as 0%. Symbols in the Figure represent the percentage of absorbance with curucmin or liposomes to that without the test samples. […]

[5] = Homo sapiens, THP-1, means ± range (n = 2) or standard deviation (n > 2)
[6] = means ± range (n = 2) or standard deviation (n > 2)

| Compound | IC50 [1, 5] | IC50 [1, 6] | IC50 ([2]; Mus musculus, Macrophage) | IC50 ([3]; Mus musculus, L929) | further results |
| --- | --- | --- | --- | --- | --- |
| O=c1c(O)c(-c2ccc(O)c(O)c2)oc2cc(O)cc(O)c12 [Quercetin, quercetin] | 125 ± 24.1 µM | – | 126 ± 83.4 µM | 117 ± 32.5 µM | – |
| O=P(O)(O)C(Cl)(Cl)P(=O)(O)O [Clodronate, clodronate, reference compound] | > 400 µM | – | 25.7 ± 15.6 µM | 336 ± 54.9 µM | Inhibition of THP-1 cell proliferation (in words) [1]: weaker activity; Inhibition of mouse bone marrow-derived macrophage proliferation (in words) [2]: comparable strong activity; Inhibition of L929 cell proliferation (in words) [3]: weaker activity |
| COc1cc(/C=C/C(=O)CC(=O)/C=C/c2ccc(O)c(OC)c2)ccc1O [Curcumin, diferuloylmethane] | – | 13 ± 3.2 µM | 22.4 ± 3.6 µM | 22.8 ± 10.8 µM | Inhibition of THP-1 cell proliferation (in words) [1]: dose-dependent inhibition; IC50 ([1]; means ± range (n = 2) or standard deviation (n > 2), listed as curcumin): < 30 µM; Inhibition of RAW264.7 cell proliferation (in words) [4]: dose-dependent inhibition |
| Oc1cc(O)c2c(c1)O[C@H](c1cc(O)c(O)c(O)c1)[C@H](O)C2 [Epigallocatechin, epigallocatechin] | 37 ± 29.6 µM | – | 157 ± 19.9 µM | 40.1 ± 3.7 µM | – |
| Oc1ccc(/C=C/c2cc(O)cc(O)c2)cc1 [Resveratrol, resveratrol] | 64.6 ± 8.5 µM | – | 77.2 ± 13 µM | 84.8 ± 29.1 µM | – |
| O=c1c(-c2ccc(O)cc2)coc2cc(O)ccc12 [Daidzein, daidzein] | > 400 µM | – | 65.1 ± 33.5 µM | 220 ± 57.9 µM | – |
| O=c1cc(-c2ccccc2)oc2ccccc12 [Flavone, flavone] | 86.9 ± 4.1 µM | – | 180 µM | 34.5 ± 3.4 µM | – |
| O=C1CC(c2ccccc2)Oc2ccccc21 (stereo not drawn) [Flavanone, flavanone] | – | 55.1 ± 10.9 µM | – | – | IC50 [2]: 225 ± 66.1 µM; IC50 [3]: 211 ± 29.6 µM |

Further lines, with some results ahead:

| IC50 [1, 5] | IC50 [1, 6] | Compound | IC50 ([2]; Mus musculus, Macrophage) | IC50 ([3]; Mus musculus, L929) | further results |
| --- | --- | --- | --- | --- | --- |
| < 30 µM | 16 ± 0.5 µM | C/C1=C\CC(C)(C)/C=C/C(=O)/C(C)=C/CC1 [Zerumbone, zerumbone] | 32.1 µM | 30.4 ± 0.1 µM | – |
| 37.9 ± 3.9 µM | – | O=c1cc(-c2ccc(O)cc2)oc2cc(O)cc(O)c12 [Apigenin, apigenin] | 70 ± 19.8 µM | 46.4 ± 3.3 µM | – |
| < 30 µM | 16 ± 6.1 µM | O=c1c(-c2ccc(O)cc2)coc2cc(O)cc(O)c12 [Genistein, genistein] | 29 ± 21.5 µM | 28.2 ± 7.5 µM | – |
| < 30 µM | 18.2 ± 0.2 µM | C[C@H]1[C@H](C)CC[C@]2(C(=O)O)CC[C@]3(C)C(=CC[C@@H]4[C@@]5(C)C[C@@H](O)[C@H](O)C(C)(C)[C@@H]5CC[C@]43C)[C@H]12 [Corosolic acid, corosolic acid] | 19.6 ± 0.6 µM | 17.7 ± 0.2 µM | – |
| < 30 µM | 17.4 ± 1.8 µM | O=C(/C=C/c1ccccc1)c1ccccc1 [Chalcone, chalcone] | 104 µM | 69.5 ± 1.2 µM | – |
| < 30 µM | 20.5 ± 2.7 µM | CC(C)c1cc2c(c(O)c1O)[C@@]13CCCC(C)(C)[C@@H]1C[C@@H]2OC3=O [Carnosol, carnosol] | 63.8 ± 5.5 µM | 50.1 ± 2.6 µM | – |
| 46.8 ± 2.8 µM | – | O=c1cc(-c2ccccc2)oc2cc(O)cc(O)c12 [Chrysine, chrysin] | 58.2 µM | 76.3 ± 11 µM | – |
| < 30 µM | 24.6 ± 3.4 µM | C[C@H]1[C@H](C)CC[C@]2(C(=O)O)CC[C@]3(C)C(=CC[C@@H]4[C@@]5(C)CC[C@H](O)C(C)(C)[C@@H]5CC[C@]43C)[C@H]12 [Ursolic acid, ursolic acid] | 16.3 ± 4.5 µM | 30.7 ± 0.8 µM | – |
| 37.6 ± 11.6 µM | – | O=c1c(-c2ccccc2)coc2ccccc12 [Isoflavone, isoflavone] | 106 ± 7.8 µM | 65.5 ± 3.6 µM | – |
